Test results taken from ChEMBL document CHEMBL1201862, “PubChem BioAssay data set” (2004).
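Exposure lasted 48 hours, with cells grown in 96-well plates and compounds tested at five concentrations. GI50 = concentration required for 50% inhibition of growth.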 Activity calls are given as the source filed them. Cut-off read from the data, not from the text of the source: active = GI50 up to about 1.1 µM and inactive = higher.

How the values were obtained:
Test in all cases: DTP human tumour cell line panel, 48 h
SF-539 = tested on: SF-539
NCI-H522 = tested on: NCI-H522
OVCAR-4 = tested on: OVCAR-4
SN12C = tested on: SN12C
A549 = tested on: A549
SNB-75 = tested on: SNB-75
OVCAR-5 = tested on: OVCAR-5
CCRF-CEM = tested on: CCRF-CEM
HT-29 = tested on: HT-29
OVCAR-3 = tested on: OVCAR-3
RXF 393 = tested on: RXF 393
CAKI-1 = tested on: CAKI-1
LOX IMVI = tested on: LOX IMVI
IGROV-1 = tested on: IGROV-1
OVCAR-8 = tested on: OVCAR-8
SK-MEL-28 = tested on: SK-MEL-28
NCI-H460 = tested on: NCI-H460
PC-3 = tested on: PC-3
MDA-MB-231 = tested on: MDA-MB-231
BT-549 = tested on: BT-549

Measured: GI50

CC(=O)NC(CCCN)C(=O)NCc1ccccc1 (centres undefined)
inactive: SF-539 > 100 µM | NCI-H522 > 100 µM | OVCAR-4 > 100 µM | SN12C > 100 µM | A549 > 100 µM | SNB-75 > 100 µM | OVCAR-5 > 100 µM | CCRF-CEM > 100 µM | HT-29 > 100 µM | OVCAR-3 > 100 µM | RXF 393 > 100 µM | CAKI-1 > 100 µM | LOX IMVI > 100 µM | IGROV-1 > 100 µM | OVCAR-8 > 100 µM | SK-MEL-28 > 100 µM | NCI-H460 > 100 µM

Cc1ccc(Nc2nc3c(=O)n(C)c(=O)n(C)c3nc2Nc2ccc(C)cc2)cc1
inactive: SF-539 13.5 µM | NCI-H522 1.15 µM | OVCAR-4 11.1 µM | SN12C 15.5 µM | A549 19.9 µM | SNB-75 15.4 µM | OVCAR-5 16.4 µM | CCRF-CEM 2.3 µM | HT-29 10.4 µM | RXF 393 10.3 µM | CAKI-1 16.4 µM | LOX IMVI 10.1 µM | IGROV-1 15 µM | OVCAR-8 13.6 µM | PC-3 14.7 µM | MDA-MB-231 13.7 µM | SK-MEL-28 16.7 µM | NCI-H460 28.8 µM

O/N=C\c1c(O)ccc2ccccc12
inactive: SF-539 44 µM | SN12C 38.3 µM | A549 46.6 µM | SNB-75 41.8 µM | OVCAR-5 > 100 µM | CCRF-CEM 47.2 µM | HT-29 54.5 µM | OVCAR-3 20.2 µM | RXF 393 35.2 µM | CAKI-1 30.8 µM | LOX IMVI 45.8 µM | OVCAR-8 9.12 µM | PC-3 88.3 µM | MDA-MB-231 46.3 µM | SK-MEL-28 47.2 µM | NCI-H460 44.7 µM

Nc1nnc2nc(CC(=O)/C=C/c3ccccc3)c(=O)[nH]n12
inactive: SF-539 > 100 µM | NCI-H522 > 100 µM | OVCAR-4 > 100 µM | SN12C > 100 µM | A549 > 100 µM | SNB-75 > 100 µM | OVCAR-5 > 100 µM | CCRF-CEM > 100 µM | HT-29 > 100 µM | OVCAR-3 > 100 µM | RXF 393 > 100 µM | CAKI-1 > 100 µM | LOX IMVI > 100 µM | IGROV-1 > 100 µM | OVCAR-8 > 100 µM | SK-MEL-28 > 100 µM | NCI-H460 > 100 µM

CCC(C)COC(=O)c1ccc(/N=C\c2ccc(/C=N/c3ccc(C(=O)OCC(C)CC)cc3)cc2)cc1 (centres undefined)
inactive: SF-539 > 100 µM | NCI-H522 > 100 µM | OVCAR-4 > 100 µM | SN12C > 100 µM | A549 > 100 µM | SNB-75 > 100 µM | OVCAR-5 > 100 µM | CCRF-CEM > 100 µM | HT-29 > 100 µM | OVCAR-3 > 100 µM | RXF 393 > 100 µM | CAKI-1 > 100 µM | LOX IMVI > 100 µM | IGROV-1 > 100 µM | OVCAR-8 > 100 µM | SK-MEL-28 > 100 µM | NCI-H460 > 100 µM

N#CCCC1(CCC#N)CCCCCCC(CCC#N)(CCC#N)C(O)C1O (centres undefined)
inactive: SF-539 > 100 µM | NCI-H522 > 100 µM | OVCAR-4 > 100 µM | SN12C 52.2 µM | A549 > 100 µM | SNB-75 > 100 µM | OVCAR-5 > 100 µM | HT-29 > 100 µM | OVCAR-3 > 100 µM | RXF 393 > 100 µM | CAKI-1 > 100 µM | LOX IMVI > 100 µM | IGROV-1 > 100 µM | OVCAR-8 > 100 µM | PC-3 > 100 µM | SK-MEL-28 > 100 µM | NCI-H460 > 100 µM

CCOC(=O)C12CCC(=O)N1N(C)c1ncccc1N2 (centres undefined)
inactive: SF-539 > 100 µM | NCI-H522 > 100 µM | OVCAR-4 > 100 µM | A549 > 100 µM | SNB-75 67.1 µM | OVCAR-5 > 100 µM | CCRF-CEM > 100 µM | HT-29 > 100 µM | OVCAR-3 > 100 µM | RXF 393 > 100 µM | CAKI-1 > 100 µM | LOX IMVI > 100 µM | IGROV-1 > 100 µM | OVCAR-8 > 100 µM | BT-549 > 100 µM | MDA-MB-231 > 100 µM | SK-MEL-28 > 100 µM | NCI-H460 > 100 µM

O=C1OCC2(CO1)CC1C=CC2C1 (centres undefined)
inactive: SF-539 > 100 µM | NCI-H522 > 100 µM | OVCAR-4 > 100 µM | SN12C > 100 µM | A549 > 100 µM | OVCAR-5 > 100 µM | HT-29 > 100 µM | OVCAR-3 > 100 µM | RXF 393 > 100 µM | CAKI-1 > 100 µM | LOX IMVI > 100 µM | IGROV-1 > 100 µM | PC-3 > 100 µM | MDA-MB-231 > 100 µM | SK-MEL-28 > 100 µM | NCI-H460 > 100 µM

CCN(CC)CCOC(=O)c1ccc(N)cc1.CCOC(=O)Nc1ccc(S(=O)(=O)OC)cc1.CCOC(=O)Nc1ccc(S(=O)(=O)OC)cc1.Nc1ccc(C(=O)O)c(O)c1
inactive: SF-539 > 100 µM | NCI-H522 > 100 µM | OVCAR-4 > 100 µM | SN12C > 100 µM | A549 > 100 µM | SNB-75 40.2 µM | OVCAR-5 > 100 µM | CCRF-CEM > 100 µM | HT-29 > 100 µM | OVCAR-3 > 100 µM | RXF 393 > 100 µM | CAKI-1 > 100 µM | LOX IMVI > 100 µM | IGROV-1 > 100 µM | OVCAR-8 > 100 µM | SK-MEL-28 > 100 µM | NCI-H460 > 100 µM

COC(=N)CCCl
inactive: SF-539 > 100 µM | NCI-H522 99.1 µM | OVCAR-4 > 100 µM | SN12C > 100 µM | A549 > 100 µM | SNB-75 83.2 µM | OVCAR-5 > 100 µM | CCRF-CEM > 100 µM | HT-29 > 100 µM | OVCAR-3 > 100 µM | RXF 393 > 100 µM | CAKI-1 > 100 µM | IGROV-1 > 100 µM | OVCAR-8 > 100 µM | BT-549 > 100 µM | PC-3 > 100 µM | SK-MEL-28 > 100 µM | NCI-H460 > 100 µM

CCOC(=O)C(=O)N1C(C)=C(C(=O)OCC)CC(C(=O)OCC)=C1C
inactive: SF-539 > 100 µM | NCI-H522 > 100 µM | OVCAR-4 > 100 µM | SN12C > 100 µM | A549 > 100 µM | SNB-75 26.7 µM | OVCAR-5 > 100 µM | CCRF-CEM > 100 µM | OVCAR-3 > 100 µM | RXF 393 > 100 µM | CAKI-1 > 100 µM | LOX IMVI > 100 µM | IGROV-1 > 100 µM | PC-3 > 100 µM | MDA-MB-231 > 100 µM | SK-MEL-28 > 100 µM | NCI-H460 > 100 µM

O=C(O)CCC(NC(=O)c1ccc(OCc2nc3cc(C(F)(F)F)ccc3nc2-c2ccccc2)cc1)C(=O)O (centres undefined)
inactive: SF-539 > 100 µM | NCI-H522 > 100 µM | OVCAR-4 > 100 µM | SN12C > 100 µM | A549 > 100 µM | SNB-75 > 100 µM | OVCAR-5 > 100 µM | CCRF-CEM > 100 µM | HT-29 > 100 µM | OVCAR-3 > 100 µM | RXF 393 > 100 µM | CAKI-1 45.4 µM | LOX IMVI > 100 µM | IGROV-1 > 100 µM | OVCAR-8 > 100 µM | PC-3 > 100 µM | MDA-MB-231 > 100 µM | SK-MEL-28 > 100 µM | NCI-H460 > 100 µM

CC(=O)OCC1OC(N2C(=O)/C(=N\NC(N)=S)c3ccc([N+](=O)[O-])cc32)C(OC(C)=O)C1OC(C)=O (centres undefined)
inactive: SF-539 24.1 µM | NCI-H522 15 µM | OVCAR-4 19 µM | SN12C 36.1 µM | A549 40.8 µM | SNB-75 18.6 µM | OVCAR-5 61.2 µM | CCRF-CEM 12.9 µM | HT-29 30 µM | OVCAR-3 26.4 µM | RXF 393 20.2 µM | CAKI-1 38.4 µM | LOX IMVI 19.1 µM | IGROV-1 48.8 µM | OVCAR-8 19.4 µM | SK-MEL-28 29.2 µM | NCI-H460 20.1 µM

CC(=O)Nc1oc(C)nc1C#N
inactive: OVCAR-4 > 100 µM | SN12C > 100 µM | A549 > 100 µM | OVCAR-5 > 100 µM | CCRF-CEM > 100 µM | HT-29 > 100 µM | RXF 393 > 100 µM | CAKI-1 > 100 µM | LOX IMVI > 100 µM | IGROV-1 > 100 µM | OVCAR-8 > 100 µM | PC-3 > 100 µM | MDA-MB-231 > 100 µM | SK-MEL-28 > 100 µM

CC(NC1=NCCO1)c1cccc([N+](=O)[O-])c1 (centres undefined)
inactive: SF-539 > 100 µM | NCI-H522 > 100 µM | OVCAR-4 > 100 µM | SN12C > 100 µM | A549 > 100 µM | SNB-75 > 100 µM | OVCAR-5 > 100 µM | CCRF-CEM > 100 µM | HT-29 > 100 µM | OVCAR-3 > 100 µM | RXF 393 > 100 µM | CAKI-1 > 100 µM | LOX IMVI > 100 µM | IGROV-1 > 100 µM | OVCAR-8 > 100 µM | PC-3 > 100 µM | MDA-MB-231 > 100 µM | SK-MEL-28 > 100 µM | NCI-H460 > 100 µM

CSc1n/c(=N\c2ccccc2)sn1-c1ccccc1
inactive: SF-539 18.6 µM | NCI-H522 2.71 µM | OVCAR-4 5.3 µM | SN12C 15.6 µM | A549 16.6 µM | SNB-75 27.2 µM | OVCAR-5 17.3 µM | CCRF-CEM 11.2 µM | HT-29 3.52 µM | OVCAR-3 18 µM | RXF 393 16.8 µM | CAKI-1 13.5 µM | LOX IMVI 16.6 µM | IGROV-1 4.65 µM | OVCAR-8 21.7 µM | SK-MEL-28 14.1 µM | NCI-H460 4.79 µM
